Key:
ATF6 = type: cell-based, mouse
Procedure: Mouse Neuro-2a cells were cultured using standard tissue culture techniques and maintained in 45% DMEM, 45% OptiMEM and 10% FBS. Plasmid concentrations used for transfection were as follows: 500 ng of each nAChR subunit, 75 ng of pCS2-mcherry, 250 ng of Sec24D constructs, 100 ng of pDsRed2-ER, 250 ng of GaIT-eCFP and 500 ng of ATF6-eGFP. 90,000 cells were plated in poly-D-lysine coated 35 mm MatTek glass bottom imaging dishes. The following day, plasmid DNA was mixed with cationic lipids by adding appropriate DNA concentrations to 4 μl of Expressfect transfection reagent in 200 μl DMEM final volume and incubated for 20 min at room temperature to form cationic lipid-DNA complexes. DMEM+DNA-lipid complexes were added to Neuro-2a cells in 1 ml of DMEM+10% FBS and incubated at 37° C. for 4 h. Dishes were rinsed 2× with DMEM, then filled with 3 ml of DMEM+10% FBS and incubated at 37° C. for 48 h. Nicotine, cytisine or DHβE was added at appropriate concentrations during the change of medium following 4 h incubation with Expressfect-plasmid DNA complexes.

Neuro-2a cells = type: cell-based, mouse
Procedure: Neuro-2a cells were transfected with α4-eGFP (500 ng)+β2wt (500 ng)+GaIT-mcherry (250 ng) or pDSred2-ER (100 ng) and cells were incubated for 48 h with appropriate concentrations of nicotine, cytisine or DHβE.
Two color fluorescence signals were separated with a dichroic and optical filters aligned in the emission path where green and red emission was separately aligned to the two halves of an EMCCD. Post-acquisition processing of images used Metamorph to demarcate TGN bodies and to extract number, size and intensity statistics.

α4-eGFPβ2-wt nAChRs [1] = target: T1, α4-eGFPβ2-wt nAChRs (Mus musculus, UniProt O70174+Q9ERK7); type: cell-based
T1 construct: expressed in transfected cells; host or cells: mouse Neuro-2a cells
T1 sequence (O70174 31-629): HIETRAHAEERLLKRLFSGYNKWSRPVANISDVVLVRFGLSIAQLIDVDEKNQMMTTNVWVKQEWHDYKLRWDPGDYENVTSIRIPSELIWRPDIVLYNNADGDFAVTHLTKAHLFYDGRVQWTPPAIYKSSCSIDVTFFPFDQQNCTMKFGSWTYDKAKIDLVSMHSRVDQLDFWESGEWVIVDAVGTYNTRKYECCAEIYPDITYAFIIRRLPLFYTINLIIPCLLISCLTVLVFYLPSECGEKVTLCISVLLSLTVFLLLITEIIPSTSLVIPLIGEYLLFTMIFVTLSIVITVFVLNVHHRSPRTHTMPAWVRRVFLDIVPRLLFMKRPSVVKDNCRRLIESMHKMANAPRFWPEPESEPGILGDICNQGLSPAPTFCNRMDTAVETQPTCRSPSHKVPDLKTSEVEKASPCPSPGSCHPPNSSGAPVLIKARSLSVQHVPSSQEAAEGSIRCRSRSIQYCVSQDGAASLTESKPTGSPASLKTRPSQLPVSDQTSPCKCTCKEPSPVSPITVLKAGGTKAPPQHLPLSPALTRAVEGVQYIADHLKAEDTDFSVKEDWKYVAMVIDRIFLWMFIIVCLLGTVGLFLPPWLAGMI
T1 sequence (Q9ERK7 26-501): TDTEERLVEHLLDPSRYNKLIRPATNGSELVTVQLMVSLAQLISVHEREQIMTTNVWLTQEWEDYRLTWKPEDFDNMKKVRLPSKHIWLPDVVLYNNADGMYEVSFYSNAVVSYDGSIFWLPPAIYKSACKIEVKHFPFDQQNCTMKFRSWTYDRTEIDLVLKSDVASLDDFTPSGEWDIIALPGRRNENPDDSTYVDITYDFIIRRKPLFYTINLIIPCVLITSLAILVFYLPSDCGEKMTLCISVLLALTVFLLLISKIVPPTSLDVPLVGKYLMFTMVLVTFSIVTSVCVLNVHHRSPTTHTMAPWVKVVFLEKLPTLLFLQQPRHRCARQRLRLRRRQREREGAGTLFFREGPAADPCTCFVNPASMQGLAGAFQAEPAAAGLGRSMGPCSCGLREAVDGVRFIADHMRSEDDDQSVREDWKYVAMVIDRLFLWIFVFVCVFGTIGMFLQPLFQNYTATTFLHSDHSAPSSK
Procedure: Neuro-2a cells were plated on 12 mm glass coverslips within 35 mm plastic bottom cell culture dishes. The following day, cells were transfected with 500 ng α4-eGFP and 500 ng β2-wt nAChR subunits. 24 to 48 hr later, glass coverslips were transferred to dishes on the microscope stage. Green fluorescence was visualized with an upright microscope (BX50WI, Olympus) and UV illumination with appropriate excitation filters. Agonist-induced currents were tested at a holding potential of −65 mV using a focal, relatively rapid drug application system designed to minimize desensitization (Xiao et al., 2009). We applied drugs from the lowest to highest concentration at 3 min intervals to minimize desensitization. Whole-cell patch-clamp recordings were with a MultiClamp 700B amplifier, a 1322 analog-to-digital converter, and pCLAMP 9.2 software (all from Axon Instruments, Molecular Devices). Data were sampled at 10 kHz and filtered at 2 kHz.
The intrapipette solution contained (in mM): 135 potassium gluconate, 5 KCl, 5 EGTA, 0.5 CaCl2, 10 HEPES, 2 Mg-ATP, and 0.1 GTP; the pH was adjusted to 7.2 with Tris base and the osmolarity to 300 mOsm with sucrose. The extracellular solution contained (in mM): 140 NaCl, 5 KCl, 2 CaCl2, 1 MgCl2, 10 HEPES, and 10 glucose; pH was adjusted to 7.3 with Tris base. The Nernst potential for Cl^− in the intrapipette solution is −82.9 mV. The bath was continuously perfused with extracellular solution (ECS) at room temperature (23±1° C.). The patch electrodes had resistances of 5 to 8 MΩ. The junction potential between the patch pipette and the bath solutions was nulled just before forming a gΩ seal. Series resistance was monitored and compensated by 70-80% throughout recordings. The data were ignored if the series resistance (15-30 MΩ) changed by >20% during the recording session.

α4-eGFPβ2-wt nAChRs [2] = target: T1, α4-eGFPβ2-wt nAChRs; type: cell-based; remark: listed apart in the source
Description: Details of the quantification method have been previously described (Srinivasan et al., 2011). Briefly, PM fluorescence was extracted as follows: Raw TIRF images were converted to background-subtracted images and the ER fluorescence was thresholded and selected. ER fluorescence was then subtracted from the original image to generate images with PM fluorescence signals. These procedures yielded a dataset of several hundred thousand pixel intensities over the 15-50 cells in each experimental group. Fluorescence intensities are simply the sum of pixel values for either the PM or the ER or the ER+PM (using whole TIRF footprint images). Mean PM fluorescence intensity was derived by dividing the total fluorescence intensity for each experimental group by the number of imaged cells and normalized to intensity of untreated cells. Ratios of fluorescence intensities for the whole TIRF footprint (ER+PM) to ER were used to determine the post-Golgi fraction of receptors. For PM integrated density measurements, rather than plotting SEMs (which would be indistinguishably small on the plots), we have used “error bars” to depict 99% confidence intervals based on a two-tailed t-test. Measurements from drug treated cells were normalized to values of untreated cells imaged on the same day. DHβE TIRF experiments were performed on a different day from nicotine and cytisine experiments.

α4β2 nAChRs = α4β2 nAChRs (Mus musculus, UniProt O70174+Q9ERK7); details: chronic nicotine, 200 nM for 24 hr
Sequence of α4β2 nAChRs (O70174 31-629): as the sequence (O70174 31-629) above
Sequence of α4β2 nAChRs (Q9ERK7 26-501): as the sequence (Q9ERK7 26-501) above
Description: We used superecliptic phluorin (SEP) fused to the C-terminus of alpha4 nicotinic receptors (nAChRs) to examine the subcellular distribution and trafficking dynamics of receptors expressed in cortical neurons. SEP is a pH-sensitive version of green fluorescent protein (GFP) that undergoes 488 nm excitation at neutral pH (˜7.4), but loses this excitation maximum under acidic conditions (12). As a result, SEP neither photobleaches nor fluoresces at low pH but regains its fluorescence at neutral and basic pH. Tagging of α4 on the extracellular C-terminus results in the orientation of SEP on the lumenal side of most organelle types in the secretory pathway. While the endoplasmic reticulum (ER) and cis-Golgi have lumenal pH of ˜7.2 and ˜6.7, respectively, the lumen of both the trans-Golgi network and secretory vesicles is much more acidic (pH<6.5) (39). If one illuminates via total internal reflection (TIRF) microscopy, only those receptors resident in nearly neutral organelles close to the plasma membrane, or inserted in the plasma membrane, are visible within the excitation field. Thus, receptors in the later stages of the secretory pathway neither fluoresce nor photobleach due to the acidic environment. […]

CN1CCCC1c1cccnc1 (centres unmarked) [Nicotine, nicotine]
reduction in the ratio of nuclear to whole cell ATF6-eGFP fluorescence (ATF6): ~25% | TGN intensity (Neuro-2a cells): no effect | effect on the average intensity of TGN bodies (in words) (Neuro-2a cells): did not affect | effect on the number of TGN bodies (in words) (Neuro-2a cells): increased | increase in the average number of TGN bodies per cell (Neuro-2a cells): ~2 fold | evoked currents as % of maximum currents induced by 500 μM nicotine (α4-eGFPβ2-wt nAChRs [1]): 0.44±0.07% | fraction of the total receptor population activated (α4-eGFPβ2-wt nAChRs [1]): 0.4% | effect on the footprint/ER ratio (in words) (α4-eGFPβ2-wt nAChRs [2]): reduction | increase in PM-localized nAChRs (α4-eGFPβ2-wt nAChRs [2]): 2 fold | reduction of the footprint/ER ratio (α4-eGFPβ2-wt nAChRs [2]): ~2 fold | increase in the number of insertion events, α4β2 nAChRs (α4β2 nAChRs): ~2 fold
